Experimental findings from PubChem BioAssay (NCI) are described below.

Test systems include SK-MEL-5 melanoma; HOP-62 NSCLC; NCI-H522 lung; SNB-75 CNS; TK-10 renal; SF-295 CNS; A549 NSCLC; MDA-MB-231 breast; EKVX NSCLC; NCI/ADR-RES ovarian.
What all share (assay): NCI tumour cell line growth inhibition, 48 h

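In this assay, cells in 96-well plates receive the compound at five concentrations for 48 hours. Endpoints are linearly interpolated between the surrounding concentrations. TGI is the concentration that stops growth completely.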

As to `COc1ccc(/C=N/NC(=O)NCCNCCO)cc1`, the TGI in the experiment on SK-MEL-5 melanoma, with HOP-62 NSCLC, in the experiment on NCI-H522 lung, with SNB-75 CNS, with TK-10 renal and in the experiment on SF-295 CNS was over 100 µM in each case. Further, the TGI in the experiment with A549 NSCLC was over 100 µM.

Regarding `Cc1c2cc[n+](C)cc2c(C)c2c1[nH]c1ccc(OC(C)(C)C)cc12`, the TGI in the experiment on SK-MEL-5 melanoma, in the experiment with HOP-62 NSCLC, with NCI-H522 lung, in the experiment on SNB-75 CNS, with TK-10 renal and in the experiment on SF-295 CNS was over 100 µM throughout. Moreover, the TGI in the experiment on A549 NSCLC is over 100 µM.

With `O=[N+]([O-])c1cc(-c2ccc([As](=O)(O)O)cc2)ccc1[As](=O)(O)O`, the TGI in the experiment with SK-MEL-5 melanoma, in the experiment with HOP-62 NSCLC, with MDA-MB-231 breast, in the experiment on NCI-H522 lung, in the experiment with EKVX NSCLC and in the experiment on TK-10 renal was over 100 µM each time. Also, the TGI in the experiment on SF-295 CNS, in the experiment on NCI/ADR-RES ovarian and in the experiment on A549 NSCLC was over 100 µM throughout.

Consider `O=C(C#Cc1ccccc1)Nc1ccccc1CC(c1c[nH]c2ccccc12)c1c[nH]c2ccccc12`, for which the TGI with SK-MEL-5 melanoma was 31.8 µM; in the experiment on HOP-62 NSCLC, over 100 µM; in the experiment with NCI-H522 lung it was 26.5 µM; in the experiment on EKVX NSCLC, 86.1 µM; in the experiment on SNB-75 CNS, over 100 µM; in the experiment on TK-10 renal, 96.6 µM. The TGI in the experiment on SF-295 CNS was 80 µM; in the experiment on A549 NSCLC it was over 100 µM.

As to `Nc1nc2c(nnn2C2C=C(CO)C(O)C2O)c(=O)[nH]1` (configuration not stated), the TGI with SK-MEL-5 melanoma, with HOP-62 NSCLC, with NCI-H522 lung, in the experiment on EKVX NSCLC, in the experiment on SNB-75 CNS and in the experiment on TK-10 renal was over 100 µM each time. In addition, the TGI with SF-295 CNS and with A549 NSCLC was over 100 µM each time.

For `CCOC(=O)/C(C(N)=O)=C(/O)c1cnccn1`, the TGI in the experiment with SK-MEL-5 melanoma, in the experiment on MDA-MB-231 breast, in the experiment with NCI-H522 lung, in the experiment with EKVX NSCLC, in the experiment with SNB-75 CNS and in the experiment with SF-295 CNS was over 100 µM throughout. In addition, the TGI with NCI/ADR-RES ovarian and in the experiment with A549 NSCLC was over 100 µM in each case.

For `C#CCN(Cc1ccc2nc(-c3ccccc3)c(Cl)nc2c1)c1ccc(Cl)c(Cl)c1`, the TGI in the experiment with SK-MEL-5 melanoma, in the experiment on HOP-62 NSCLC, in the experiment on NCI-H522 lung, in the experiment with EKVX NSCLC, in the experiment on SNB-75 CNS and in the experiment on TK-10 renal was over 100 µM in each case. Also, the TGI with SF-295 CNS and in the experiment on A549 NSCLC was over 100 µM in each case.

Consider `COc1ccc(C2=Nn3c(nc4sc5c(c4c3=O)CCCC5)SC2)cc1`, for which the TGI in the experiment with SK-MEL-5 melanoma, in the experiment with HOP-62 NSCLC, in the experiment on MDA-MB-231 breast, in the experiment with NCI-H522 lung, with EKVX NSCLC and in the experiment with TK-10 renal was over 100 µM in each case. The TGI in the experiment with SF-295 CNS, in the experiment with NCI/ADR-RES ovarian and in the experiment on A549 NSCLC was over 100 µM throughout.

Regarding `CCN1CC2(CO)CCC(OC)C34C5CC6C(OC)CC(O)(C5C6OC)C(O)(C(OC)C23)C14` (configuration not stated), the TGI was over 211 µM in the experiment on SK-MEL-5 melanoma; over 375 µM with HOP-62 NSCLC; over 375 µM in the experiment on NCI-H522 lung; over 65 µM in the experiment with EKVX NSCLC; over 375 µM with SNB-75 CNS; over 375 µM with SF-295 CNS. Further, the TGI with NCI/ADR-RES ovarian and in the experiment on A549 NSCLC was over 375 µM in each case.

For `Nc1ccc(Oc2ccc(C34CC5CC(C3)CC(c3ccc(Oc6ccc(N)c(O)c6)cc3)(C5)C4)cc2)cc1O`, the TGI in the experiment with SK-MEL-5 melanoma is 4.37 µM; in the experiment on HOP-62 NSCLC, 12 µM; in the experiment on MDA-MB-231 breast, 3 µM; in the experiment with NCI-H522 lung, 3.33 µM; in the experiment on EKVX NSCLC it was 3.63 µM; in the experiment with TK-10 renal it was over 20.3 µM. For the same molecule, the TGI with SF-295 CNS worked out at 5.1 µM; with NCI/ADR-RES ovarian, 6.12 µM; with A549 NSCLC it was 3.24 µM.

Regarding `Cn1cnc([N+](=O)[O-])c1Sc1nnc(-c2ccc(Cl)cc2)n1C`, the TGI is over 100 µM in the experiment with HOP-62 NSCLC; 15.6 µM in the experiment on NCI-H522 lung; 20.4 µM in the experiment with EKVX NSCLC; 46.7 µM with SNB-75 CNS; 31.6 µM in the experiment with TK-10 renal; over 100 µM in the experiment on SF-295 CNS. In the experiment with A549 NSCLC, the TGI was over 100 µM.

As to `Cc1[nH]c(-c2ccccc2)c(O)c1C(=O)OC1CC(C)CCC1C(C)C` (configuration not stated), the TGI in the experiment with SK-MEL-5 melanoma amounted to 30.2 µM; in the experiment on HOP-62 NSCLC, 28.6 µM; with MDA-MB-231 breast, 29 µM; in the experiment on NCI-H522 lung, 26.6 µM; in the experiment on EKVX NSCLC, 23.9 µM; in the experiment on SNB-75 CNS, 34.3 µM. Besides, the values for the TGI in the experiment on SF-295 CNS, in the experiment on NCI/ADR-RES ovarian and in the experiment with A549 NSCLC were 24.8 µM, 28.2 µM and 26.2 µM, respectively.

`CCN(CC)CCNC(=O)C1COc2ccc(-c3cc(=O)c4ccccc4o3)cc2O1` (configuration not stated): the TGI in the experiment on SK-MEL-5 melanoma amounted to 35.9 µM; with HOP-62 NSCLC it was 47 µM; in the experiment with NCI-H522 lung, 32.5 µM; in the experiment with EKVX NSCLC it was 61 µM; in the experiment on SNB-75 CNS, 42.7 µM; in the experiment on SF-295 CNS, 39.3 µM. Moreover, the values for the TGI in the experiment with NCI/ADR-RES ovarian and with A549 NSCLC were 45.8 µM and 49.8 µM, respectively.

For the molecule `CCOC1=C2N=C(C(CC)c3ccc(F)cc3)N=C2C(=O)c2ccccc21` (configuration not stated), the TGI in the experiment on SK-MEL-5 melanoma was 26.9 µM; in the experiment with HOP-62 NSCLC, over 100 µM; in the experiment with NCI-H522 lung, 76.7 µM; in the experiment with EKVX NSCLC, over 79.7 µM; in the experiment with SNB-75 CNS, 81.5 µM; in the experiment with TK-10 renal it was 66.7 µM. In addition, the TGI with SF-295 CNS was 63.7 µM; with A549 NSCLC, over 85.8 µM.

Take `C#CCN1C(=O)CN2C(Cl)(Cl)C2(c2ccccc2)c2cc(Cl)ccc21` (configuration not stated): the TGI was over 100 µM in the experiment on SK-MEL-5 melanoma; over 100 µM in the experiment with HOP-62 NSCLC; 75.2 µM with NCI-H522 lung; over 100 µM with EKVX NSCLC; over 100 µM in the experiment with TK-10 renal; over 100 µM in the experiment on SF-295 CNS.

With `Nc1ccc2ncc(NCc3ccc(F)cc3)nc2c1`, the TGI in the experiment on SK-MEL-5 melanoma, in the experiment with HOP-62 NSCLC, in the experiment with NCI-H522 lung, with EKVX NSCLC, in the experiment on SNB-75 CNS and with TK-10 renal was over 100 µM throughout. For the same molecule, the TGI with SF-295 CNS and in the experiment with A549 NSCLC was over 100 µM each time.
